Data published in PubChem BioAssay AID2060501 (Molecular Pharmacology Branch, DTP, NCI, 2025).
“And” between values parts separate entries of the source, which are not always exact repeats. Equal values may be shown once.

Tested on: 282377-053-R-J1-PDC complex spheroids, viability
Test: Anticancer human tumor 282377-053-R-J1-PDC patient-derived colon adenocarcinoma cell line growth inhibition [GQUAD]
Conditions: for viability, T/C: stronger effect = lower value
Description: DNA G-quadruplex Stabilizer Agents in Combinations in Complex Spheroids
A high-throughput screen of multi-cell type tumor spheroids was designed to identify active combinations of DNA G-quadruplex stabilizer agents and targeted small molecules. Complex spheroids include a stromal component modeled by human endothelial cells (HUVEC) and fibroblasts modeled by human mesenchymal stem cells (MSCs). The concentration ranges selected for each drug and investigational agent were based upon clinically achievable concentrations if the clinical Cmax of the agent was known.
Compounds. The drugs and investigational agents: pidnarulex (CX-5461; NSC782164), APTO-253 (NSC789042), BRACO-19 (NSC847499), peposertib (NSC802822), ceralasertib (NSC780249), elimusertib (NSC800525), camonsertib (NSC841442), AZD-1390 (NSC803789), olaparib (NSC753686), talazoparib (NSC767125), ART-558 (NSC835418), sotorasib (NSC818433), MRTX-1133 (NSC836407), SN-38 (NSC673596), topotecan (NSC609699), etoposide (NSC141540), doxorubicin (NSC123127), gemcitabine (NSC613327), 5-fluorouracil (NSC19893), paclitaxel (NSC125973), vemurafenib (NSC761431), panobinostat (NSC761190), R-306465 (JNJ-16241199; NSC773264), adavosertib (NSC754352), TP-3654 (NSC805149), carboplatin (NSC241240), KSQ-4279 (NSC840948), and staurosporine (NSC755774) were obtained from the National Cancer Institute (NCI) Developmental Therapeutics Program Chemical Repository (34). The FDA-approved anticancer drug set is available from the NCI Developmental Therapeutics Program. […] The stock solutions were prepared in dimethyl sulfoxide (DMSO, Sigma-Aldrich, St. Louis, MO, cat. D2650) at 800-fold the tested concentration and stored at -70 degrees C prior to their use. All drugs and investigational agents were tested over a range starting from a high concentration at or near the clinical Cmax and decreasing in half-log increments. If the clinical Cmax for an agent had not been determined, the highest concentration tested was 10 microM.
2.3 Cell Culture. All cells were maintained in an incubator at 37 degrees C and 5% CO2 with 95% humidity. The PDC lines were cultured according to standard operating procedures established by the NCI PDMR. All PDCs were thawed and cultured in Matrigel-coated flasks prepared with a working solution of 1X Ham's F-12 nutrient mix, without supplementation (Invitrogen, cat. 11765054), 100 U/mL penicillin-streptomycin (Invitrogen, cat. 15140122), and 2.5% Matrigel (Corning Inc., cat. 354248) for the first three passages. The 857933-349-R-J2-PDC line was cultured in 6C/Colon 1B media, which includes advanced DMEM/F-12 (Thermo Fisher Scientific, cat. 12634028), 10 mM HEPES (Thermo Fisher Scientific, cat. 15630080), 1X GlutaMAX supplement (Thermo Fisher Scientific, cat. 35050061), 0.1 mg/mL primocin (InvivoGen, cat. ant-pm-2), 10% defined fetal bovine serum, heat inactivated (HyClone Laboratories Inc., cat. SH30070.03HI), 50% L-WRN conditioned media (ATCC, cat. CRL-3276), 1.25 mM N-Acetyl-L-cysteine (Sigma-Aldrich, cat. A9165), 10 mM nicotinamide (Sigma-Aldrich, cat. N0636), 1X B-27 supplement (Thermo Fisher Scientific, cat. 17504044), 1X N-2 supplement (Thermo Fisher Scientific, cat. 17502048), 10 microM Y-27632 dihydrochloride (Tocris Bioscience, cat. 1254), and 50 ng/mL human EGF recombinant protein (Thermo Fisher Scientific, cat. PHG0311). The 485176-168-R4-J1-PDC line was cultured in Panc media, which includes all 6C/Colon 1B media components plus 100 ng/mL human FGF-10 (Thermo Fisher Scientific, cat. 100-26), 500 nM SB-431542 (Selleckchem, cat. S1067), and gastrin (Tocris, cat. 3006).
[…]

[1] = curve of first compound, second compound 0.0316 µM
[2] = curve of first compound, second compound 0.1 µM
[3] = curve of first compound, second compound 0.316 µM
[4] = curve of first compound, second compound 1 µM
[5] = curve of first compound, second compound 3.16 µM
[6] = curve of first compound, second compound 10 µM
[7] = second compound 0.0316 µM, first compound 0.0316 µM
[8] = second compound 0.0316 µM, first compound 0.1 µM
[9] = second compound 0.0316 µM, first compound 0.316 µM
[10] = second compound 0.0316 µM, first compound 1 µM
[11] = second compound 0.0316 µM, first compound 3.16 µM
[12] = second compound 0.0316 µM, first compound 10 µM
[13] = second compound 0.1 µM, first compound 0.0316 µM
[14] = second compound 0.1 µM, first compound 0.1 µM
[15] = second compound 0.1 µM, first compound 0.316 µM
[16] = second compound 0.1 µM, first compound 1 µM
[17] = second compound 0.1 µM, first compound 3.16 µM
[18] = second compound 0.1 µM, first compound 10 µM
[19] = second compound 0.316 µM, first compound 0.0316 µM
[20] = second compound 0.316 µM, first compound 0.1 µM
[21] = second compound 0.316 µM, first compound 0.316 µM
[22] = second compound 0.316 µM, first compound 1 µM
[23] = second compound 0.316 µM, first compound 3.16 µM
[24] = second compound 0.316 µM, first compound 10 µM
[25] = second compound 1 µM, first compound 0.0316 µM
[26] = second compound 1 µM, first compound 0.1 µM
[27] = second compound 1 µM, first compound 0.316 µM
[28] = second compound 1 µM, first compound 1 µM
[29] = second compound 1 µM, first compound 3.16 µM
[30] = second compound 1 µM, first compound 10 µM
[31] = second compound 3.16 µM, first compound 0.0316 µM
[32] = second compound 3.16 µM, first compound 0.1 µM
[33] = second compound 3.16 µM, first compound 0.316 µM
[34] = second compound 3.16 µM, first compound 1 µM
[35] = second compound 3.16 µM, first compound 3.16 µM
[36] = second compound 3.16 µM, first compound 10 µM
[37] = second compound 10 µM, first compound 0.0316 µM
[38] = second compound 10 µM, first compound 0.1 µM
[39] = second compound 10 µM, first compound 0.316 µM
[40] = second compound 10 µM, first compound 1 µM
[41] = second compound 10 µM, first compound 3.16 µM
[42] = second compound 10 µM, first compound 10 µM
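Also: spheroids exposed to compounds for 7 days before readout.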
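For viability, T/C in this document: percent of vehicle DMSO control viability with 100% = untreated-like growth.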

Question: `CC1COCCN1c1cc(C2(O)CC3CCC(C2)O3)c2cnn(-c3ccn[nH]3)c2n1` (stereo unspecified) + Cc1cnc(CNC(=O)c2c(=O)c3ccc(N4CCCN(C)CC4)nc3n3c2sc2ccccc23)cn1 was tested. Which IC50 [1] did it give?
Answer: 134 nM

Question: What about the IC50 [2] of the same compound?
Answer: 73.9 nM

Question: What about the IC50 [3] of the same compound?
Answer: < 31.6 nM

Question: What about the IC50 [4] of the same compound?
Answer: < 31.6 nM

Question: And the IC50 [5]?
Answer: < 31.6 nM

Question: What about the IC50 [6] of the same compound?
Answer: < 31.6 nM

Question: And the viability, T/C [7]?
Answer: 96.4%

Question: What about the viability, T/C [8] of the same compound?
Answer: 49.5%

Question: What about the viability, T/C [9] of the same compound?
Answer: 39.7%

Question: What about the viability, T/C [10] of the same compound?
Answer: 24.6%

Question: What about the viability, T/C [11] of the same compound?
Answer: 20.5%

Question: What about the viability, T/C [12] of the same compound?
Answer: 12.6%

Question: What about the viability, T/C [13] of the same compound?
Answer: 71.9%

Question: And the viability, T/C [14]?
Answer: 41.3%

Question: And the viability, T/C [15]?
Answer: 27.6%

Question: What about the viability, T/C [16] of the same compound?
Answer: 26.8%

Question: What about the viability, T/C [17] of the same compound?
Answer: 21.8%

Question: And the viability, T/C [18]?
Answer: 15.1%

Question: And the viability, T/C [19]?
Answer: 50.1%

Question: What about the viability, T/C [20] of the same compound?
Answer: 34.8%

Question: What about the viability, T/C [21] of the same compound?
Answer: 28.8%

Question: And the viability, T/C [22]?
Answer: 22.9%

Question: And the viability, T/C [23]?
Answer: 17.7%

Question: And the viability, T/C [24]?
Answer: 15%

Question: And the viability, T/C [25]?
Answer: 42%

Question: And the viability, T/C [26]?
Answer: 25.9%

Question: And the viability, T/C [27]?
Answer: 28.7%

Question: And the viability, T/C [28]?
Answer: 23.1%

Question: And the viability, T/C [29]?
Answer: 21.8%

Question: And the viability, T/C [30]?
Answer: 14.3%

Question: And the viability, T/C [31]?
Answer: 33.6%

Question: What about the viability, T/C [32] of the same compound?
Answer: 23.4%

Question: What about the viability, T/C [33] of the same compound?
Answer: 23.8%

Question: And the viability, T/C [34]?
Answer: 21.7%

Question: What about the viability, T/C [35] of the same compound?
Answer: 18.6%

Question: And the viability, T/C [36]?
Answer: 10.6%

Question: What about the viability, T/C [37] of the same compound?
Answer: 32.8%

Question: And the viability, T/C [38]?
Answer: 20.1%

Question: And the viability, T/C [39]?
Answer: 22.2%

Question: What about the viability, T/C [40] of the same compound?
Answer: 18%

Question: What about the viability, T/C [41] of the same compound?
Answer: 17%

Question: What about the viability, T/C [42] of the same compound?
Answer: 0.6%

Question: `CC(=O)O[C@H]1C(=O)[C@@]2(C)[C@H]([C@H](OC(=O)c3ccccc3)[C@]3(O)C[C@H](OC(=O)[C@H](O)[C@@H](NC(=O)c4ccccc4)c4ccccc4)C(C)=C1C3(C)C)[C@]1(OC(C)=O)CO[C@@H]1C[C@@H]2O` + Cc1[nH]c2ccc(F)cc2c1-c1nc2c3cccnc3c3ncccc3c2[nH]1 was tested. Which IC50 [1] did it give?
Answer: 519 nM

Question: What about the IC50 [2] of the same compound?
Answer: 584 nM

Question: And the IC50 [3]?
Answer: 519 nM

Question: What about the IC50 [4] of the same compound?
Answer: 617 nM

Question: And the IC50 [5]?
Answer: 424 nM

Question: And the IC50 [6]?
Answer: < 31.6 nM

Question: What about the viability, T/C [7] of the same compound?
Answer: 115%

Question: What about the viability, T/C [8] of the same compound?
Answer: 112%

Question: And the viability, T/C [9]?
Answer: 84.6%

Question: What about the viability, T/C [10] of the same compound?
Answer: 4.01%

Question: What about the viability, T/C [11] of the same compound?
Answer: 0.1%

Question: What about the viability, T/C [12] of the same compound?
Answer: 0.12%

Question: What about the viability, T/C [13] of the same compound?
Answer: 108%

Question: What about the viability, T/C [14] of the same compound?
Answer: 107%

Question: What about the viability, T/C [15] of the same compound?
Answer: 106%

Question: And the viability, T/C [16]?
Answer: 3.64%

Question: And the viability, T/C [17]?
Answer: 0.06%

Question: What about the viability, T/C [18] of the same compound?
Answer: 0.09%

Question: What about the viability, T/C [19] of the same compound?
Answer: 107%

Question: And the viability, T/C [20]?
Answer: 111%

Question: What about the viability, T/C [21] of the same compound?
Answer: 79.5%

Question: What about the viability, T/C [22] of the same compound?
Answer: 10.8%

Question: What about the viability, T/C [23] of the same compound?
Answer: 0.05%

Question: What about the viability, T/C [24] of the same compound?
Answer: 0.21%

Question: What about the viability, T/C [25] of the same compound?
Answer: 116%

Question: And the viability, T/C [26]?
Answer: 90.3%

Question: And the viability, T/C [27]?
Answer: 110%

Question: And the viability, T/C [28]?
Answer: 9.92%

Question: What about the viability, T/C [29] of the same compound?
Answer: 0.04%

Question: What about the viability, T/C [30] of the same compound?
Answer: 0.07%

Question: What about the viability, T/C [31] of the same compound?
Answer: 92.8%

Question: What about the viability, T/C [32] of the same compound?
Answer: 109%

Question: What about the viability, T/C [33] of the same compound?
Answer: 66%

Question: What about the viability, T/C [34] of the same compound?
Answer: 4.89%

Question: And the viability, T/C [35]?
Answer: 0.11%

Question: And the viability, T/C [36]?
Answer: 0.1%

Question: And the viability, T/C [37]?
Answer: 36.7%

Question: And the viability, T/C [38]?
Answer: 43.9%

Question: What about the viability, T/C [39] of the same compound?
Answer: 59.1%

Question: And the viability, T/C [40]?
Answer: 10.1%

Question: What about the viability, T/C [41] of the same compound?
Answer: 0.17%

Question: And the viability, T/C [42]?
Answer: 0.46%

Question: Which viability, T/C (compound 0.000999 µM) does the source give for `CCc1c2c(nc3ccc(O)cc13)-c1cc3c(c(=O)n1C2)COC(=O)[C@]3(O)CC` here?
Answer: 87.9% and 100% and 111%

Question: What about the viability, T/C (compound 0.00316 µM) of the same compound?
Answer: 81.8% and 80.9% and 91%

Question: What about the viability, T/C (compound 0.00999 µM) of the same compound?
Answer: 67.7% and 93.2% and 67%

Question: What about the viability, T/C (compound 0.0316 µM) of the same compound?
Answer: 50.7% and 73% and 63.6%

Question: And the viability, T/C (compound 0.0999 µM)?
Answer: 40.8% and 61.3% and 40.1%

Question: What about the viability, T/C (compound 0.316 µM) of the same compound?
Answer: 29.2% and 39% and 30.2%

Question: And the IC50 (curve of compound)?
Answer: 38.4 nM and 178 nM and 54.6 nM
